# Reference: US20240131034A1, “METHODS OF TREATING STAPHYLOCOCCUS AUREUS BACTEREMIA INFECTIONS” (Basilea Pharmaceutica International AG, Allschwil, priority 2022, published 2024)
# Entries after “also recorded” stand apart in the source; their conditions may differ.
# Columns and labels:
# MRSA = assay: MIC of baseline blood S. aureus isolates: MRSA; assay type: cell-based, Staphylococcus aureus; conditions: MRSA samples
# Text: (§1) The distribution of ceftobiprole, daptomycin, and aztreonam MICs, including MIC50, MIC90, and MIC range, for blood S. aureus, MRSA, and MSSA, was tabulated for the mITT and CE populations. The shifts in ceftobiprole, daptomycin, and aztreonam MIC results from baseline to PTE, and the shifts in ceftobiprole, daptomycin, and aztreonam MIC results from baseline to the maximum value post-baseline by baseline infecting organisms (i.e., pathogens), were presented overall and by geographical region in the mITT and CE populations.
# MSSA = assay: MIC of baseline blood S. aureus isolates: MSSA; assay type: cell-based, Staphylococcus aureus; conditions: MSSA samples
# Text: as §1
# [1] = prolonged (>4 weeks) ceftobiprole treatment; cited from earlier work
# [2] = assay type: in vivo
# Protocol: Safety population: The safety population consisted of all randomized patients who received any amount/dose of study medication. Patients in the safety population were analyzed according to the first medication actually received.
# Ceftohiprole 500 mg (as 667 mg ceftobiprole medocaril) was administered as a 2-hour intravenous (i.v.) infusion every 6 hours in the first 8 days, and every 8 hours from Day 9 onwards (with dose and/or schedule adjusted in patients with renal impairment). Daptomycin weight-based at 6 mg/kg (up to 10 mg/kg in accordance with institutional standards) administered as 0.5-hour i.v. infusion every 24 hours (with schedule adjusted in patients with renal impairment). Optional aztreonam 1000 mg fixed dose administered as 0.5-hour i.v. infusion every 24 hours (with dose adjusted in patients with renal impairment). The target treatment duration in Part I was 21-28 days of study medication, with a maximum treatment duration of 28 days. The maximum treatment duration In Part 2 was 42 days.
# • 1. All-cause mortality assessed at Day 70 (PTE visit) in the mITT population. • 2. Microbiological cradication assessed by the DRC at Day 70 (PTE visit) in the mITT population. • 3. The overall success rate in the ITT, mITT, and CE populations; • a) at the BOT and PTE (ITT and CE populations only) visits • b) at the EOT and PTE visits, for RIE vs non-IE SAB • c) at the EOT and PTE visits, by renal-function status • 4. Development of new metastatic foci or other complications of SAB after Day 7 assessed in the mITT and CE populations. • 5. Time to S. aureus bloodstream clearance, defined as the elapsed time (days) from randomization to bloodstream clearance, with bloodstream clearance defined as the occurrence of two consecutive study days with blood-culture-negative assessments for S. aureus. • 6. Safety and tolerability based on incidence, type, severity, and relationship to study medication of AEs; and changes in laboratory tests • 7. Pharmacokinetics of ceftobiprole in the PK population
# [3] = test system: Staphylococcus aureus bacteremia (SAB); assay: Phase 3 study of ceftobiprole vs daptomycin ± aztreonam in complicated SAB (NCT03138733): efficacy; assay type: in vivo, human; conditions: for DRC-assessed SAB relapses: 4 patients on daptomycin (2 MSSA, 2 MRSA), 2 patients on ceftobiprole (all MSSA); for Overall success rate in patients with high vancomycin MICs of 2-8 mg/L: 16 patients (8 MRSA, 8 MSSA), 7/8 vs 4/8; for Adjusted difference ceftobiprole − daptomycin ± aztreonam (95% CI): DRC overall success at PTE (mITT): Cochran-Mantel-Haenszel weights, adjusted for dialysis status and prior antibacterial treatment use; for Non-inferiority for overall success at PTE (70 days post-randomization): pre-specified −15% non-inferiority margin
# S. aureus = assay: On-treatment MIC shifts and MIC vs clinical failure, blood S. aureus; assay type: cell-based, Staphylococcus aureus; conditions: MIC of the drug received, daptomycin: three patients (two MSSA, one MRSA)
# Text: as §1
# [4] = test system: acute bacterial skin and soft tissue infections; conditions: TARGET Phase 3; Overcash et al.; cited from earlier work
# [5] = mITT, Cochran-Mantel-Haenszel adjusted
# [6] = mITT, Cochran-Mantel-Haenszel adjusted, listed as ceftobiprole
# [7] = mITT, S. aureus (overall), bloodstream clearance = two consecutive study days with negative blood culture
compound,measurement,setting,value
Nc1nc(/C(=N/O)C(=O)N[C@@H]2C(=O)N3C(C(=O)O)=C(/C=C4\CCN([C@@H]5CCNC5)C4=O)CS[C@H]23)ns1 [Ceftobiprole],Isolates at MIC 0.5 mg/L,MRSA,14%
same,Isolates at MIC 1 mg/L,MRSA,58%
same,Isolates at MIC 2 mg/L,MRSA,28%
same,Isolates at MIC 0.25 mg/L,MSSA,51%
same,Isolates at MIC 0.5 mg/L,MSSA,48%
same,Isolates at MIC either 0.25 mg/L or 0.5 mg/L,MSSA,99%
same,Risk of convulsions,[1],potential for an increased risk of convulsions
same,"AE anemia, patients","[2]; human, in vivo",11.0%
same,"AE gamma-glutamyl-transferase increased, patients","[2]; human, in vivo",6.3%
same,"AE nausea, patients","[2]; human, in vivo",10.5%
same,Adverse events leading to discontinuation,"[2]; human, in vivo",9.4%
same,Drug-related AEs leading to discontinuation,"[2]; human, in vivo",4.7%
same,Drug-related AEs leading to discontinuation: allergy-type events,"[2]; human, in vivo",4 n
same,Drug-related AEs leading to discontinuation: hepatic function test abnormalities,"[2]; human, in vivo",1 n
same,Drug-related AEs leading to discontinuation: leukopenia,"[2]; human, in vivo",1 n
same,Drug-related AEs leading to discontinuation: nausea/vomiting,"[2]; human, in vivo",4 n
same,Drug-related AEs leading to discontinuation: seizure,"[2]; human, in vivo",1 n
same,Patients who experienced a serious adverse event (SAE),"[2]; human, in vivo","18,8%"
same,Patients who experienced a severe AE,"[2]; human, in vivo",15.2%
same,Patients who experienced an AE,"[2]; human, in vivo",63.4%
same,"Study treatment discontinuation, reason non-related AE","[2]; human, in vivo",3.2%
same,"Study treatment discontinuation, reason related AE","[2]; human, in vivo",4.8%
same,Study-drug-related AEs,"[2]; human, in vivo",13.1%
same,"Study discontinuation, reason death",[2]; mITT population,9.0%
same,"Study treatment discontinuation, reason death",[2]; mITT population,4.8%
same,DRC-assessed SAB relapses,[3],1.1%
same,Overall success rate in patients with high vancomycin MICs of 2-8 mg/L,[3],87.5%
same,Adjusted difference ceftobiprole − daptomycin ± aztreonam (95% CI): DRC overall success at PTE (CE),"[3]; CE, Cochran-Mantel-Haenszel adjusted",0.6% (−8.3. 9.5)
same,"Overall success at the PTE visits, patients with MRSA of USA clonal strain type","[3]; MRSA isolates typed by MLST, spa and SCCmec, 16/21 vs 16/23",76.2%
same,Investigator-assessed overall success at the PTE visit,[3]; mITT,73.5%
same,Patients who died through the PTE visit,[3]; mITT,9.0%
same,Patients who experienced new metastatic foci or other complications of SAB after Day 7,[3]; mITT,5.8%
same,Patients with microbiological eradication at the PTE visit,[3]; mITT,82.0%
same,Adjusted proportion difference: investigator-assessed overall success at PTE,"[3]; mITT, 95% CI: −4.2, 13.5",4.7%
same,Responders (overall success at the PTE visit),"[3]; mITT, 70 days post-randomization",69.8%
same,Adjusted difference ceftobiprole − daptomycin ± aztreonam (95% CI): ACM through PTE,[3]; [5],"−0.5% (−6.2, 5.2)"
same,Adjusted difference ceftobiprole − daptomycin ± aztreonam (95% CI): death due to SAB (DRC),[3]; [5],"0.4% (−3.2, 4.0)"
same,Adjusted difference ceftobiprole − daptomycin ± aztreonam (95% CI): microbiological response at PTE,[3]; [5],"5.1% (−2.9, 13.0)"
same,Adjusted difference ceftobiprole − daptomycin ± aztreonam (95% CI): new metastatic foci or other complications of SAB after Day 7,[3]; [5],"0.1% (−4.6, 4.8)"
same,Adjusted difference ceftobiprole − daptomycin ± aztreonam (95% CI): ACM through PTE,[3]; [6],−0.5%
same,Adjusted difference ceftobiprole − daptomycin ± aztreonam (95% CI): microbiological response at PTE,[3]; [6],5.1%
same,Adjusted difference ceftobiprole − daptomycin ± aztreonam (95% CI): new metastatic foci or other complications of SAB after Day 7,[3]; [6],0.1%
same,Adjusted difference ceftobiprole − daptomycin ± aztreonam (95% CI): DRC overall success at PTE (mITT),[3]; mITT,"2.0% (−7.1, 11.1)"
same,Adjusted difference ceftobiprole − daptomycin ± aztreonam (95% CI): DRC overall success at PTE (mITT),"[3]; mITT, listed as ceftobiprole",2.0%
same,Median time (days) clearance (95% CI),"[3]; mITT, MRSA",5 days
same,Patients with clearance achieved,"[3]; mITT, MRSA",93.3%
same,Median time (days) clearance (95% CI),"[3]; mITT, MSSA",3 days
same,Patients with clearance achieved,"[3]; mITT, MSSA",94.3%
same,Median time (days) clearance (95% CI),"[3]; mITT, S. aureus (overall)",4 days
same,Patients with clearance achieved,[3]; [7],94.2%
same,"Time (days) to S. aureus bloodstream clearance, Median (95% CI)","[3]; mITT, Table 1","4 (3, 5) days"
same,Non-inferiority for overall success at PTE (70 days post-randomization),[3]; mITT,non-inferiority of ceftobiprole
same,Non-inferiority for overall success at PTE (70 days post-randomization),"[3]; mITT, listed as ceftobiprole",non-inferiority of ceftobiprole to daptomycin±aztreonam; also recorded: non-inferior to daptomycin
same,"Response rate (primary endpoint), non-white patients","[3]; subgroup analysis, 5/10 vs 5/6",50.0%
same,"Response rate (primary endpoint), age group of 18-34 years","[3]; subgroup analysis, 17/20 vs 11/19",85.0%
same,"On-treatment increases in MICs by ≥four-fold, patients",S. aureus; listed as cefobiprole,No on-treatment increases
same,Early clinical response and investigator-assessed clinical success vs vancomycin and aztreonam,[4],non-inferior to vancomycin and aztreonam
"CCCCCCCCCC(=O)N[C@@H](Cc1c[nH]c2ccccc12)C(=O)N[C@H](CC(N)=O)C(=O)N[C@@H](CC(=O)O)C(=O)N[C@@H]1C(=O)NCC(=O)N[C@@H](CCCN)C(=O)N[C@@H](CC(=O)O)C(=O)N[C@H](C)C(=O)N[C@@H](CC(=O)O)C(=O)NCC(=O)N[C@H](CO)C(=O)N[C@@H]([C@H](C)CC(=O)O)C(=O)N[C@@H](CC(=O)c2ccccc2N)C(=O)O[C@@H]1C [Daptomycin, reference compound]",Isolates at MIC 0.25 mg/L,MRSA,22%
same,Isolates at MIC 0.5 mg/L,MRSA,76%
same,Isolates at MIC 1 mg/L,MRSA,2%
same,Isolates at MIC 0.25 mg/L,MSSA,28%
same,Isolates at MIC 0.5 mg/L,MSSA,71%
same,Isolates at MIC either 0.25 mg/L or 0.5 mg/L,MSSA,99%
same,Drug-related AEs leading to discontinuation: cosinophilic pneumonia,[2]; Safety population,2 n
same,Drug-related AEs leading to discontinuation: myopathy,[2]; Safety population,1 n
same,Tolerability / safety in patients with complicated SAB,[2]; in vivo,well tolerated
same,DRC-assessed SAB relapses,[3],3.0%
same,Overall success rate in patients with high vancomycin MICs of 2-8 mg/L,[3],50.0%
same,Median time (days) clearance (95% CI),"[3]; mITT, MRSA",5 days
same,Patients with clearance achieved,"[3]; mITT, MRSA",87.8%
same,Median time (days) clearance (95% CI),"[3]; mITT, MSSA",4 days
same,Patients with clearance achieved,"[3]; mITT, MSSA",95.2%
same,Median time (days) clearance (95% CI),"[3]; mITT, S. aureus (overall)",4 days
same,Patients with clearance achieved,[3]; [7],92.9%
same,"On-treatment increases in MICs by ≥four-fold, patients",S. aureus,1.5%
